Test results: patent US4677131

Experiment: shake-flask (equal volumes, stirred); both phases assayed by HPLC
Details: 32 °C

Point of comparison: CCCCCCCCCCCCN1CCN(C)C1=O, “partition coefficient iso-octane / distilled water” value 7350 concentration ratio. Against it:
- CCCCCCCN1CCN(C)C1=O — lower, 24 concentration ratio
- CCCCCCCCCCN1CCN(C)C1=O — lower, 756 concentration ratio
- CCCCCCCCCCCCN1CCCCCC1=O — lower, 2004 concentration ratio
